Tests used:
Type in all cases: in vivo
crabgrass [1] = assay: Test Example 3: weedkilling efficacy through soil treatment; D: crabgrass; conditions: treatment dosage 315 g/ha
Procedure, shortened: (§1)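 Crop and weed responses were judged three weeks after a uniform surface spray of the water-diluted emulsion at the given g/ha rate. Seeds sat beneath about 1.5 cm of sterilized diluvial soil, and boxes stood in a greenhouse at 25 to 30° C.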

chickweed [2] = assay: Test Example 4: weedkilling efficacy by foliar treatment; N: chickweed; conditions: treatment dosage 315 g/ha
Procedure, shortened: (§2)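 Seeds are spot-sown into sterilized diluvial soil and covered with about 1.5 cm of soil. After 14 days' greenhouse growth at 25 to 30° C, plants are sprayed on stems and leaves with diluted emulsion at the stated g/ha rate, then scored at 3 weeks.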

bulrush [3] = assay: Test Example 2: weedkilling efficacy, growth period weed treatment in the submerged state; B: bulrush; conditions: treatment dosage 252 g/ha
Procedure, shortened: (§3)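 Weeds treated at the 1-2 leaf stage by application of diluted emulsion onto floodwater (4 cm depth, alluvial soil) at specified g/ha. Grown in greenhouse at 25 to 30° C; herbicidal effect rated three weeks after treatment.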

corn [4] = assay: Test Example 4: foliar treatment, effect on crop; c: corn; conditions: treatment dosage 315 g/ha
Procedure, shortened: as §2

fig-leafed goosefoot [5] = assay: Test Example 4: weedkilling efficacy by foliar treatment; M: fig-leafed goosefoot; conditions: treatment dosage 315 g/ha
Procedure, shortened: as §2

directly sown rice [6] = assay: Test Example 3: soil treatment, effect on crop; b: directly sown rice; conditions: treatment dosage 315 g/ha
Procedure, shortened: as §1

corn [7] = assay: Test Example 3: soil treatment, effect on crop; c: corn; conditions: treatment dosage 315 g/ha
Procedure, shortened: as §1

green foxtail [8] = assay: Test Example 4: weedkilling efficacy by foliar treatment; E: green foxtail; conditions: treatment dosage 315 g/ha
Procedure, shortened: as §2

barnyard grass [9] = assay: Test Example 2: weedkilling efficacy, growth period weed treatment in the submerged state; A: barnyard grass; conditions: treatment dosage 252 g/ha
Procedure, shortened: as §3

Italian ryegrass [10] = assay: Test Example 3: weedkilling efficacy through soil treatment; I: Italian ryegrass; conditions: treatment dosage 315 g/ha
Procedure, shortened: as §1

wheat [11] = assay: Test Example 3: soil treatment, effect on crop; e: wheat; conditions: treatment dosage 315 g/ha
Procedure, shortened: as §1

beet [12] = assay: Test Example 3: soil treatment, effect on crop; f: beet; conditions: treatment dosage 315 g/ha
Procedure, shortened: as §1

bulrush [13] = assay: Test Example 1: weedkilling efficacy, preemergent weed treatment in the submerged state; B: bulrush; conditions: treatment dosage 252 g/ha
Procedure, shortened: (§4)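 Pre-emergence application onto floodwater (4 cm, alluvial soil) on the day of sowing, dose expressed as g/ha from diluted emulsion formulation. Weeds sown with 2.5-leaf transplanted rice as crop; plants held at 25–30 °C in greenhouse and scored against assessment criteria after 3 weeks.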

black-grass [14] = assay: Test Example 4: weedkilling efficacy by foliar treatment; H: black-grass; conditions: treatment dosage 315 g/ha
Procedure, shortened: as §2

catchweed [15] = assay: Test Example 4: weedkilling efficacy by foliar treatment; O: catchweed; conditions: treatment dosage 315 g/ha
Procedure, shortened: as §2

green foxtail [16] = assay: Test Example 3: weedkilling efficacy through soil treatment; E: green foxtail; conditions: treatment dosage 315 g/ha
Procedure, shortened: as §1

beet [17] = assay: Test Example 4: foliar treatment, effect on crop; f: beet; conditions: treatment dosage 315 g/ha
Procedure, shortened: as §2

birds-eye speedwell [18] = assay: Test Example 3: weedkilling efficacy through soil treatment; p: birds-eye speedwell; conditions: treatment dosage 315 g/ha
Procedure, shortened: as §1

soybean [19] = assay: Test Example 3: soil treatment, effect on crop; d: soybean; conditions: treatment dosage 315 g/ha
Procedure, shortened: as §1

black-grass [20] = assay: Test Example 3: weedkilling efficacy through soil treatment; H: black-grass; conditions: treatment dosage 315 g/ha
Procedure, shortened: as §1

oval-leafed pondweed [21] = assay: Test Example 1: weedkilling efficacy, preemergent weed treatment in the submerged state; C: oval-leafed pondweed; conditions: treatment dosage 252 g/ha
Procedure, shortened: as §4

redroot pigweed [22] = assay: Test Example 3: weedkilling efficacy through soil treatment; L: redroot pigweed; conditions: treatment dosage 315 g/ha
Procedure, shortened: as §1

Indian mallow [23] = assay: Test Example 4: weedkilling efficacy by foliar treatment; K: Indian mallow; conditions: treatment dosage 315 g/ha
Procedure, shortened: as §2

chickweed [24] = assay: Test Example 3: weedkilling efficacy through soil treatment; N: chickweed; conditions: treatment dosage 315 g/ha
Procedure, shortened: as §1

Indian mallow [25] = assay: Test Example 3: weedkilling efficacy through soil treatment; K: Indian mallow; conditions: treatment dosage 315 g/ha
Procedure, shortened: as §1

wild oat [26] = assay: Test Example 3: weedkilling efficacy through soil treatment; G: wild oat; conditions: treatment dosage 315 g/ha
Procedure, shortened: as §1

barnyard grass [27] = assay: Test Example 1: weedkilling efficacy, preemergent weed treatment in the submerged state; A: barnyard grass; conditions: treatment dosage 252 g/ha
Procedure, shortened: as §4

transplanted rice = assay: Test Example 1: preemergent weed treatment in the submerged state, effect on crop; a: transplanted rice; conditions: treatment dosage 252 g/ha
Procedure, shortened: as §4

catchweed [28] = assay: Test Example 3: weedkilling efficacy through soil treatment; O: catchweed; conditions: treatment dosage 315 g/ha
Procedure, shortened: as §1

wild oat [29] = assay: Test Example 4: weedkilling efficacy by foliar treatment; G: wild oat; conditions: treatment dosage 315 g/ha
Description: Testing of Weedkilling Efficacy by Foliar Treatment
Sterilized diluvial soil was introduced into 21 cm long, 13 cm wide, 7 cm deep plastic boxes, and seeds of crabgrass, green foxtail, barnyard grass, wild oat, black-grass, Italian ryegrass, common wind-grass, Indian mallow, redroot pigweed, fig-leafed goosefoot, chickweed, catchweed, birds-eye speedwell, corn, soybean, rice, wheat, beet and rapeseed were each spot-sown, and covered with about 1.5 cm of soil, then the plants were grown in a greenhouse at 25 to 30° C.
After they had grown for 14 days, emulsions of compounds of the present invention prepared according to compounding example 2 were diluted with water to give the specified dosages, and applied uniformly onto the stem and leaf parts with a small sprayer. 3 weeks after the pesticide treatment the effect on each type of plant was investigated on the basis of the assessment criteria of test example 1.
A: barnyard grass, B: bulrush, C: oval-leafed pondweed, D: crabgrass, E: green foxtail, F: barnyard grass, G: wild oat, H: black-grass, I: Italian ryegrass, J: common wind-grass, K: Indian mallow, L: redroot pigweed, M: fig-leafed goosefoot, N: chickweed, O: catchweed, p: birds-eye speedwell, a: transplanted rice, b: directly sown rice, c: corn, d: soybean, e: wheat, f: beet, g: rapeseed
Further, pesticide dosage (g/ha) indicates the concentration regulated such that treatment was with only the stated number of grams (g), when calculated per hectare (ha).

directly sown rice [30] = assay: Test Example 4: foliar treatment, effect on crop; b: directly sown rice; conditions: treatment dosage 315 g/ha
Procedure, shortened: as §2

oval-leafed pondweed [31] = assay: Test Example 2: weedkilling efficacy, growth period weed treatment in the submerged state; C: oval-leafed pondweed; conditions: treatment dosage 252 g/ha
Procedure, shortened: as §3

fig-leafed goosefoot [32] = assay: Test Example 3: weedkilling efficacy through soil treatment; M: fig-leafed goosefoot; conditions: treatment dosage 315 g/ha
Procedure, shortened: as §1

redroot pigweed [33] = assay: Test Example 4: weedkilling efficacy by foliar treatment; L: redroot pigweed; conditions: treatment dosage 315 g/ha
Procedure, shortened: as §2

crabgrass [34] = assay: Test Example 4: weedkilling efficacy by foliar treatment; D: crabgrass; conditions: treatment dosage 315 g/ha
Procedure, shortened: as §2

soybean [35] = assay: Test Example 4: foliar treatment, effect on crop; d: soybean; conditions: treatment dosage 315 g/ha
Procedure, shortened: as §2

Italian ryegrass [36] = assay: Test Example 4: weedkilling efficacy by foliar treatment; I: Italian ryegrass; conditions: treatment dosage 315 g/ha
Procedure, shortened: as §2

wheat [37] = assay: Test Example 4: foliar treatment, effect on crop; e: wheat; conditions: treatment dosage 315 g/ha
Procedure, shortened: as §2

birds-eye speedwell [38] = assay: Test Example 4: weedkilling efficacy by foliar treatment; p: birds-eye speedwell; conditions: treatment dosage 315 g/ha
Procedure, shortened: as §2

Structure (SMILES)	D (crabgrass) weedkilling efficacy grade (crabgrass [1])	N (chickweed) weedkilling efficacy grade (chickweed [2])	B (bulrush) weedkilling efficacy grade (bulrush [3])	c (corn) effect on crop grade (corn [4])	c (corn) effect on crop grade (corn [7])	E (green foxtail) weedkilling efficacy grade (green foxtail [8])	A (barnyard grass) weedkilling efficacy grade (barnyard grass [9])	I (Italian ryegrass) weedkilling efficacy grade (Italian ryegrass [10])	e (wheat) effect on crop grade (wheat [11])	f (beet) effect on crop grade (beet [12])	B (bulrush) weedkilling efficacy grade (bulrush [13])	H (black-grass) weedkilling efficacy grade (black-grass [14])	O (catchweed) weedkilling efficacy grade (catchweed [15])	E (green foxtail) weedkilling efficacy grade (green foxtail [16])	d (soybean) effect on crop grade (soybean [19])	H (black-grass) weedkilling efficacy grade (black-grass [20])	C (oval-leafed pondweed) weedkilling efficacy grade (oval-leafed pondweed [21])	L (redroot pigweed) weedkilling efficacy grade (redroot pigweed [22])	K (Indian mallow) weedkilling efficacy grade (Indian mallow [23])	N (chickweed) weedkilling efficacy grade (chickweed [24])	other results
CC1=C(c2ccccc2)C(=O)N(C(C)(C)C(=O)Nc2cc(C(F)(F)F)ccn2)CO1 [B-2-57]	5 (weed kill ratio 90% or more, (practically complete withering))	3 (weed kill ratio 40% or more, less than 70%)	5 (weed kill ratio 90% or more, (practically complete withering))	5 (weed kill ratio 90% or more, (practically complete withering))	4 (weed kill ratio 70% or more, less than 90%)	5 (weed kill ratio 90% or more, (practically complete withering))	5 (weed kill ratio 90% or more, (practically complete withering))	5 (weed kill ratio 90% or more, (practically complete withering))	0 (weed kill ratio 5% or less (practically no effect))	3 (weed kill ratio 40% or more, less than 70%)	5 (weed kill ratio 90% or more, (practically complete withering))	5 (weed kill ratio 90% or more, (practically complete withering))	5 (weed kill ratio 90% or more, (practically complete withering))	5 (weed kill ratio 90% or more, (practically complete withering))	4 (weed kill ratio 70% or more, less than 90%)	5 (weed kill ratio 90% or more, (practically complete withering))	5 (weed kill ratio 90% or more, (practically complete withering))	5 (weed kill ratio 90% or more, (practically complete withering))	5 (weed kill ratio 90% or more, (practically complete withering))	4 (weed kill ratio 70% or more, less than 90%)	M (fig-leafed goosefoot) weedkilling efficacy grade (fig-leafed goosefoot [5]): 3 (weed kill ratio 40% or more, less than 70%); b (directly sown rice) effect on crop grade (directly sown rice [6]): 5 (weed kill ratio 90% or more, (practically complete withering)); f (beet) effect on crop grade (beet [17]): 3 (weed kill ratio 40% or more, less than 70%); P (birds-eye speedwell) weedkilling efficacy grade (birds-eye speedwell [18]): 5 (weed kill ratio 90% or more, (practically complete withering)); K (Indian mallow) weedkilling efficacy grade (Indian mallow [25]): 5 (weed kill ratio 90% or more, (practically complete withering)); G (wild oat) weedkilling efficacy grade (wild oat [26]): 5 (weed kill ratio 90% or more, (practically complete withering)); A (barnyard grass) weedkilling efficacy grade (barnyard grass [27]): 5 (weed kill ratio 90% or more, (practically complete withering)); a (transplanted rice) effect on crop grade (transplanted rice): 4 (weed kill ratio 70% or more, less than 90%); O (catchweed) weedkilling efficacy grade (catchweed [28]): 5 (weed kill ratio 90% or more, (practically complete withering)); G (wild oat) weedkilling efficacy grade (wild oat [29]): 5 (weed kill ratio 90% or more, (practically complete withering)); b (directly sown rice) effect on crop grade (directly sown rice [30]): 5 (weed kill ratio 90% or more, (practically complete withering)); C (oval-leafed pondweed) weedkilling efficacy grade (oval-leafed pondweed [31]): 5 (weed kill ratio 90% or more, (practically complete withering)); M (fig-leafed goosefoot) weedkilling efficacy grade (fig-leafed goosefoot [32]): 4 (weed kill ratio 70% or more, less than 90%); L (redroot pigweed) weedkilling efficacy grade (redroot pigweed [33]): 5 (weed kill ratio 90% or more, (practically complete withering)); D (crabgrass) weedkilling efficacy grade (crabgrass [34]): 5 (weed kill ratio 90% or more, (practically complete withering)); d (soybean) effect on crop grade (soybean [35]): 4 (weed kill ratio 70% or more, less than 90%); I (Italian ryegrass) weedkilling efficacy grade (Italian ryegrass [36]): 5 (weed kill ratio 90% or more, (practically complete withering)); e (wheat) effect on crop grade (wheat [37]): 1 (weed kill ratio 5% or more, less than 20%)
CC1=C(c2ccccc2)C(=O)N(C(C)(C)C(=O)Nc2cncc(F)c2)CO1 [B-3-01]	5 (weed kill ratio 90% or more, (practically complete withering))	2 (weed kill ratio 20% or more, less than 40%)	5 (weed kill ratio 90% or more, (practically complete withering))	4 (weed kill ratio 70% or more, less than 90%)	3 (weed kill ratio 40% or more, less than 70%)	5 (weed kill ratio 90% or more, (practically complete withering))	3 (weed kill ratio 40% or more, less than 70%)	5 (weed kill ratio 90% or more, (practically complete withering))	5 (weed kill ratio 90% or more, (practically complete withering))	4 (weed kill ratio 70% or more, less than 90%)	5 (weed kill ratio 90% or more, (practically complete withering))	5 (weed kill ratio 90% or more, (practically complete withering))	4 (weed kill ratio 70% or more, less than 90%)	5 (weed kill ratio 90% or more, (practically complete withering))	0 (weed kill ratio 5% or less (practically no effect))	5 (weed kill ratio 90% or more, (practically complete withering))	5 (weed kill ratio 90% or more, (practically complete withering))	4 (weed kill ratio 70% or more, less than 90%)	3 (weed kill ratio 40% or more, less than 70%)	4 (weed kill ratio 70% or more, less than 90%)	P (birds-eye speedwell) weedkilling efficacy grade (birds-eye speedwell [38]): 3 (weed kill ratio 40% or more, less than 70%); K (Indian mallow) weedkilling efficacy grade (Indian mallow [25]): 2 (weed kill ratio 20% or more, less than 40%); G (wild oat) weedkilling efficacy grade (wild oat [26]): 5 (weed kill ratio 90% or more, (practically complete withering)); A (barnyard grass) weedkilling efficacy grade (barnyard grass [27]): 5 (weed kill ratio 90% or more, (practically complete withering)); a (transplanted rice) effect on crop grade (transplanted rice): 0 (weed kill ratio 5% or less (practically no effect)); G (wild oat) weedkilling efficacy grade (wild oat [29]): 5 (weed kill ratio 90% or more, (practically complete withering)); b (directly sown rice) effect on crop grade (directly sown rice [30]): 5 (weed kill ratio 90% or more, (practically complete withering)); C (oval-leafed pondweed) weedkilling efficacy grade (oval-leafed pondweed [31]): 4 (weed kill ratio 70% or more, less than 90%); M (fig-leafed goosefoot) weedkilling efficacy grade (fig-leafed goosefoot [32]): 5 (weed kill ratio 90% or more, (practically complete withering)); L (redroot pigweed) weedkilling efficacy grade (redroot pigweed [33]): 3 (weed kill ratio 40% or more, less than 70%); D (crabgrass) weedkilling efficacy grade (crabgrass [34]): 5 (weed kill ratio 90% or more, (practically complete withering)); d (soybean) effect on crop grade (soybean [35]): 4 (weed kill ratio 70% or more, less than 90%); I (Italian ryegrass) weedkilling efficacy grade (Italian ryegrass [36]): 5 (weed kill ratio 90% or more, (practically complete withering)); e (wheat) effect on crop grade (wheat [37]): 1 (weed kill ratio 5% or more, less than 20%)

From US9738634B2, “Heterocyclic amide compound and herbicide” (SYNGENTA PARTICIPATIONS AG, priority 2013, dated 2017)
